ChEMBL document CHEMBL4130548, “Exploration of 1,2,3-triazole-pyrimidine hybrids as potent reversal agents against ABCB1-mediated multidrug resistance” (Eur J Med Chem, 2018)

Key:
Format in all cases: cell-based
[1] = target: T1, ATP-dependent translocase ABCB1 (Homo sapiens, UniProt P08183); test: Inhibition of ABCB1 in human SW620/AD300 cells assessed as potentiation of paclitaxel-induced cytotoxicity by measuring fold reduction in paclitaxel IC50 at 2 uM preincubated for 4 hrs followed by paclitaxel addition measured after 72 hrs by MTT assay
[2] = target: T1, ATP-dependent translocase ABCB1; test: Inhibition of ABCB1 in human SW620/AD300 cells assessed as potentiation of colchicine-induced cytotoxicity by measuring fold reduction in colchicine IC50 at 2 uM preincubated for 4 hrs followed by […] measured after 72 hrs by MTT assay
[3] = target: T1, ATP-dependent translocase ABCB1; test: Inhibition of ABCB1 (unknown origin) expressed in HEK293T cells assessed as potentiation of paclitaxel-induced cytotoxicity by measuring fold reduction in paclitaxel IC50 at 2 uM preincubated for 4 hrs followed by paclitaxel addition measured after 72 hrs by MTT assay
[4] = target: T1, ATP-dependent translocase ABCB1; test: Inhibition of ABCB1 (unknown origin) expressed in HEK293T cells assessed as potentiation of colchicine-induced cytotoxicity by measuring fold reduction in colchicine IC50 at 2 uM preincubated for 4 hrs followed by […] measured after 72 hrs by MTT assay
[5] = target: T1, ATP-dependent translocase ABCB1; test: Inhibition of ABCB1 in human SW620/AD300 cells assessed as potentiation of paclitaxel-induced cytotoxicity by measuring fold reduction in paclitaxel IC50 at 2 uM preincubated for 4 hrs followed by paclitaxel addition measured after 72 hrs by MTT assay relative to verapamil
[6] = target: T1, ATP-dependent translocase ABCB1; test: Inhibition of ABCB1 in human SW620/AD300 cells assessed as potentiation of colchicine-induced cytotoxicity by measuring fold reduction in colchicine IC50 at 2 uM preincubated for 4 hrs followed by […] measured after 72 hrs by MTT assay relative to verapamil
[7] = target: T1, ATP-dependent translocase ABCB1; test: Binding affinity at ABCB1 in human SW620/AD300 cells assessed as thermal stabilization at 2 uM preincubated for 4 hrs followed by incubation 40 to 61 degC for 3 mins by CETSA; conditions: 0.05 h
[8] = target: T1, ATP-dependent translocase ABCB1; test: Inhibition of ABCB1 in human SW620/AD300 cells assessed as increase in Rh123 accumulation at 2 uM preincubated or 4 hrs followed by Rh123 addition measured after 30 mins by flow cytometry; conditions: 0.5 h
[9] = target: T1, ATP-dependent translocase ABCB1; test: Inhibition of ABCB1 in human SW620/AD300 cells assessed as reduction in Rh123 efflux at 2 uM treated followed by Rh123 addition in Rh123 free medium for 30 to 120 mins by flow cytometry
[10] = target: T1, ATP-dependent translocase ABCB1; test: Inhibition of ABCB1 in human SW620/AD300 cells assessed as reduction in paclitaxel efflux at 2 uM treated followed by 2 hrs of paclitaxel treatment in paclitaxel free medium for 30 mins by flow cytometry

T1 sequence (P08183 whole entry): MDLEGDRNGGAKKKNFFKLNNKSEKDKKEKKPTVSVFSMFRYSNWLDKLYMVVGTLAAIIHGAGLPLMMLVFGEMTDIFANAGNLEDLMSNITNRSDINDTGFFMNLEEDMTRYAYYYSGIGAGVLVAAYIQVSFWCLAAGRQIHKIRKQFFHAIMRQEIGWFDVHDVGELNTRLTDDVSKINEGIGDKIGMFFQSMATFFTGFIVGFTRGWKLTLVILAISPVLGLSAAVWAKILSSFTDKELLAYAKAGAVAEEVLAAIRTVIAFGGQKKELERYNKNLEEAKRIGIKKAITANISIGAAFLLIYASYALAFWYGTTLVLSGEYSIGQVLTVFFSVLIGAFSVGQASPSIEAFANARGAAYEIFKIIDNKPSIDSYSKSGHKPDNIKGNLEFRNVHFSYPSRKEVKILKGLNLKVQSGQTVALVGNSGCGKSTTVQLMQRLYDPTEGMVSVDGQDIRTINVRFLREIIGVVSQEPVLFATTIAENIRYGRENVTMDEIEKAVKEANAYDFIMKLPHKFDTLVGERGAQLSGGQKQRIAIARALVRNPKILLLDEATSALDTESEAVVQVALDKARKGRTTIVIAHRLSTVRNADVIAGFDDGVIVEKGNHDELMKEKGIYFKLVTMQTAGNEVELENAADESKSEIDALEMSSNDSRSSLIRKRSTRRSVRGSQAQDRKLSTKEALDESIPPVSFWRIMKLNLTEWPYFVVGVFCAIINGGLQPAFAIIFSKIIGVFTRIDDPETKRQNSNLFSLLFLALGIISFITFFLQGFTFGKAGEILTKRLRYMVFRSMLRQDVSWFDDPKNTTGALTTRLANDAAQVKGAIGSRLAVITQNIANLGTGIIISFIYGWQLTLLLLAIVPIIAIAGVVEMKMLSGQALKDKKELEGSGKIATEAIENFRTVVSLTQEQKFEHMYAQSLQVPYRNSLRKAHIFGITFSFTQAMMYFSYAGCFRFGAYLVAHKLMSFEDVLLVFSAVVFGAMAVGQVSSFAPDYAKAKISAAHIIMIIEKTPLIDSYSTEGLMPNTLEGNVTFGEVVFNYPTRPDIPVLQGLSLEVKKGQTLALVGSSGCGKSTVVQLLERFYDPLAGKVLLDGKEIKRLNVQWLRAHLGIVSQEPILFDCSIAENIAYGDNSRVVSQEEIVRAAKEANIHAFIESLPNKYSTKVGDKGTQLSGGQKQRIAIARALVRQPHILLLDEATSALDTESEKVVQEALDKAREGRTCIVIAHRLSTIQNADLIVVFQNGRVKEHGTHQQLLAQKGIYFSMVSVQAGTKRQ

| Compound | fold change (FC) [1] | other results |
| --- | --- | --- |
| Cc1ccccc1Nc1nc(SCc2cn(Cc3ccc(Cl)cc3)nn2)nc(-c2ccccc2)c1C#N | 136.33 | fold change (FC) [2]: 5.04; fold change (FC) [3]: 4.53; fold change (FC) [4]: 31.31; fold change (FC) [5]: 7; fold change (FC) [6]: 2; Activity [7]: Active; inhibition (INH) [8]: Active; inhibition (INH) [9]: Active; inhibition (INH) [10]: Active |
| Cc1ccc(Nc2nc(SCc3cn(Cc4ccc(F)cc4)nn3)nc(-c3ccccc3)c2C#N)cc1 | 1.03 |  |
| Cc1ccc(Nc2nc(SCc3cn(Cc4ccccc4Cl)nn3)nc(-c3ccc(Br)cc3)c2C#N)cc1 | 3.61 |  |
| N#Cc1c(Nc2ccc(F)cc2)nc(SCc2cn(Cc3ccccc3Cl)nn2)nc1-c1ccccc1 | 1.01 |  |
| COc1ccc(Nc2nc(SCc3cn(Cc4ccccc4Cl)nn3)nc(-c3ccccc3)c2C#N)cc1 | 6.7 |  |
| Cc1cccc(Nc2nc(SCc3cn(Cc4ccccc4Cl)nn3)nc(-c3ccccc3)c2C#N)c1 | 8.7 |  |
| Cc1ccc(Nc2nc(SCc3cn(Cc4ccccc4Cl)nn3)nc(-c3ccc(Cl)cc3)c2C#N)cc1 | 5.31 |  |
| Cc1ccc(Cn2cc(CSc3nc(Nc4ccc(C)cc4)c(C#N)c(-c4ccccc4)n3)nn2)cc1 | 4.35 |  |
| N#Cc1c(Nc2cccc([N+](=O)[O-])c2)nc(SCc2cn(Cc3ccccc3Cl)nn2)nc1-c1ccccc1 | 5.68 |  |
| N#Cc1c(Nc2ccc(Cl)cc2)nc(SCc2cn(Cc3ccccc3Cl)nn2)nc1-c1ccccc1 | 2.02 |  |
| N#Cc1c(Nc2ccccc2Cl)nc(SCc2cn(Cc3ccccc3Cl)nn2)nc1-c1ccccc1 | 24.06 |  |
| N#Cc1c(Nc2cccc(C(F)(F)F)c2)nc(SCc2cn(Cc3ccccc3Cl)nn2)nc1-c1ccccc1 | 5.84 |  |
| Cc1ccc(Nc2nc(SCc3cn(Cc4ccccc4Cl)nn3)nc(-c3ccc(C(C)C)cc3)c2C#N)cc1 | 51.12 |  |
| Cc1ccccc1Nc1nc(SCc2cn(Cc3ccccc3Cl)nn2)nc(-c2ccccc2)c1C#N | 5.6 |  |
| Cc1ccc(Nc2nc(SCc3cn(Cc4ccc(Cl)cc4)nn3)nc(-c3ccccc3)c2C#N)cc1 | 8.7 |  |
| N#Cc1c(Nc2ccccc2F)nc(SCc2cn(Cc3ccccc3Cl)nn2)nc1-c1ccccc1 | 8.7 |  |

| Compound | fold change (FC) [1] | other results |
| --- | --- | --- |
| C#CCSc1nc(Nc2ccc(Cl)cc2)c(C#N)c(-c2ccccc2)n1 | 1.64 |  |
| COc1ccccc1Nc1nc(SCc2cn(Cc3ccccc3Cl)nn2)nc(-c2ccccc2)c1C#N | 2.29 |  |
| Cc1ccc(Cn2cc(CSc3nc(Nc4ccccc4F)c(C#N)c(-c4ccccc4)n3)nn2)cc1 | 1 |  |
| Cc1ccc(Nc2nc(SCc3cn(Cc4ccccc4Cl)nn3)nc(-c3ccccc3)c2C#N)cc1 | 3.58 |  |
| Cc1ccc(Cn2cc(CSc3nc(Nc4ccccc4Cl)c(C#N)c(-c4ccccc4)n3)nn2)cc1 | 1.09 |  |
| COc1cc(-c2nc(SCc3cn(Cc4ccccc4Cl)nn3)nc(Nc3ccc(C)cc3)c2C#N)cc(OC)c1OC | 34.08 |  |
| Cc1ccc(Nc2nc(SCc3cn(Cc4ccccc4Cl)nn3)nc(-c3ccc(C)cc3)c2C#N)cc1 | 17.04 |  |
| N#Cc1c(Nc2ccccc2F)nc(SCc2cn(Cc3ccc(Cl)cc3)nn2)nc1-c1ccccc1 | 1.35 |  |
| C#CCSc1nc(Nc2cccc(C(F)(F)F)c2)c(C#N)c(-c2ccccc2)n1 | 1.2 |  |
| C#CCSc1nc(Nc2ccccc2Cl)c(C#N)c(-c2ccccc2)n1 | 1.32 |  |
| N#Cc1c(Nc2ccccc2)nc(SCc2cn(Cc3ccccc3Cl)nn2)nc1-c1ccccc1 | 7.86 |  |
| Cc1ccc(Cn2cc(CSc3nc(Nc4ccccc4C)c(C#N)c(-c4ccccc4)n3)nn2)cc1 | 4.44 |  |
| C#CCSc1nc(Nc2ccc(OC)cc2)c(C#N)c(-c2ccccc2)n1 | 1.92 |  |
| N#Cc1c(Nc2cccc(Cl)c2)nc(SCc2cn(Cc3ccccc3Cl)nn2)nc1-c1ccccc1 | 21.52 |  |
| C#CCSc1nc(Nc2cccc(Cl)c2)c(C#N)c(-c2ccccc2)n1 | 1.36 |  |
